This is an account of results in ChEMBL document CHEMBL1201862, “PubChem BioAssay data set” (2004).

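How tested: cells in 96-well plates exposed to compound for 48 hours at five concentrations. At the GI50, growth is halved.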 Calls of active or inactive are those of the source. Cut-off read from the data, not from the text of the source: active = GI50 up to about 1.1 µM and inactive = higher.

Test systems include CAKI-1; SW-620; Hs-578T; SNB-75; OVCAR-8; MDA-MB-231; A498; UACC-62; BT-549; SNB-19; SF-295; NCI-H522; ACHN; M14; HCT-15; SR; PC-3; K562; HCC 2998.
What all share (assay): inhibition of tumour cell growth, NCI panel, 48 h

For `O=C1COC(c2ccccc2O)=NN1CCCN1CCCC1`, the GI50 in the test with CAKI-1, in the test with SW-620, with Hs-578T, in the test on SNB-75, in the test with OVCAR-8 and with MDA-MB-231 was > 100 µM (inactive) each time. Also, the GI50 in the test on A498, in the test on UACC-62, in the test with BT-549, in the test with SNB-19, in the test on SF-295 and with NCI-H522 was > 100 µM (inactive) each time. In addition, the GI50 is > 100 µM (inactive) with ACHN; > 100 µM (inactive) with M14; above 100 µM in the test with HCT-15; 60.3 µM (inactive) in the test on SR; > 100 µM (inactive) in the test on PC-3.
For the compound `CC(C)(C)OC(=O)N1CC(O)O[C@H](c2ccccc2)[C@@H]1c1ccccc1` (stereo not given in full), the GI50 in the test with CAKI-1 is 44.9 µM (inactive); with K562 it was 33.4 µM (inactive); with SW-620, 16.6 µM (inactive); with Hs-578T, 32.4 µM (inactive); with SNB-75 it was 24.8 µM (inactive); with OVCAR-8, 29.7 µM (inactive). Further, the GI50 in the test on MDA-MB-231 was 28.2 µM (inactive); with A498 it was 21.4 µM (inactive); with UACC-62, 14.3 µM (inactive); in the test on BT-549, 17.8 µM (inactive); in the test with SNB-19 it was 15.7 µM (inactive); with SF-295, 16.4 µM (inactive). The GI50 in the test with NCI-H522 was 21.2 µM (inactive); in the test on M14, 16.4 µM (inactive); in the test with HCT-15 it was 18 µM; with SR it was 16.7 µM (inactive); in the test with PC-3, 14.7 µM (inactive).
Consider `Nc1nc(N)c2nn(-c3ccc(C(=O)O)cc3)nc2n1`, for which the GI50 in the test on CAKI-1, with HCC 2998, in the test on K562, in the test on SW-620, in the test on Hs-578T and with SNB-75 was > 100 µM (inactive) in each case. In addition, the GI50 in the test with OVCAR-8, with MDA-MB-231, in the test with A498, with UACC-62, with BT-549 and in the test with SNB-19 was > 100 µM (inactive) throughout. Besides, the GI50 in the test on SF-295 was > 100 µM (inactive); in the test with NCI-H522, > 100 µM (inactive); with ACHN it was > 100 µM (inactive); in the test on M14 it was > 100 µM (inactive); in the test with HCT-15, above 100 µM; in the test on PC-3 it was > 100 µM (inactive).
With `O=C1C(NS(=O)(=O)c2ccccc2)=C(n2ccnc2)C(=O)c2ccccc21`, the GI50 with CAKI-1 is > 100 µM (inactive); in the test on K562, > 100 µM (inactive); with SW-620, > 100 µM (inactive); in the test with Hs-578T, > 100 µM (inactive); in the test with SNB-75, 4.44 µM (inactive); with OVCAR-8, > 100 µM (inactive). Further, the GI50 with MDA-MB-231, with UACC-62, in the test with BT-549, with SNB-19, in the test with SF-295 and in the test on NCI-H522 was > 100 µM (inactive) throughout. In addition, the GI50 is > 100 µM (inactive) in the test on ACHN; > 100 µM (inactive) in the test with M14; above 100 µM in the test on HCT-15; > 100 µM (inactive) in the test with SR; > 100 µM (inactive) in the test on PC-3.
In the case of `Cn1c2c(c3ccccc3c1=O)C(=O)c1ccccc1-2`, the GI50 in the test on CAKI-1 was > 100 µM (inactive); in the test on K562 it was > 100 µM (inactive); in the test with SW-620, > 100 µM (inactive); in the test on Hs-578T, > 100 µM (inactive); in the test with SNB-75, 77.6 µM (inactive); in the test on OVCAR-8, 32.9 µM (inactive). The GI50 was 43.4 µM (inactive) in the test with MDA-MB-231; 74.1 µM (inactive) in the test on A498; 59 µM (inactive) with UACC-62; 50.9 µM (inactive) in the test with BT-549; 44.2 µM (inactive) in the test with SNB-19; > 100 µM (inactive) in the test with SF-295. In addition, the GI50 is 11.7 µM (inactive) in the test on NCI-H522; > 100 µM (inactive) in the test on M14; 9.79 µM in the test with HCT-15; 5.2 µM (inactive) in the test with SR; > 100 µM (inactive) with PC-3.
Regarding `CCN(c1cccc(NC(=S)Nc2ccccc2N(CC)c2cc(-c3ccccc3)no2)c1)c1cc(-c2ccccc2)no1`, the GI50 in the test on CAKI-1, in the test with HCC 2998, with K562, in the test on SW-620, with Hs-578T and in the test on SNB-75 was > 100 µM (inactive) each time. In addition, the GI50 with OVCAR-8, with MDA-MB-231, in the test with UACC-62, in the test with BT-549, in the test on SNB-19 and in the test on SF-295 was > 100 µM (inactive) in each case. The GI50 in the test with NCI-H522 was > 100 µM (inactive); in the test on ACHN, > 100 µM (inactive); with M14, > 100 µM (inactive); in the test on HCT-15 it was above 100 µM; in the test with SR, > 100 µM (inactive); in the test with PC-3, > 100 µM (inactive).
Take `CC(=O)OCC1OC(Oc2cc(C)c(O)cc2C/C=C(\C)CC/C=C(\C)CC(=O)CC(C)C)C(O)C(OC(C)=O)C1OC(C)=O` (stereo not given): the GI50 in the test on CAKI-1 is 30.3 µM (inactive); in the test with HCC 2998 it was 10.7 µM (inactive); with K562, 9.38 µM (inactive); in the test on SW-620, 11 µM (inactive); in the test on Hs-578T, 11.9 µM (inactive); in the test on SNB-75, > 50 µM (inactive). Further, the GI50 was 16.9 µM (inactive) in the test on OVCAR-8; 11.2 µM (inactive) in the test on MDA-MB-231; 11 µM (inactive) in the test with A498; 13 µM (inactive) in the test on UACC-62; 10.6 µM (inactive) in the test on BT-549; 7.93 µM (inactive) with SNB-19. The GI50 in the test with SF-295 is 15.1 µM (inactive); with NCI-H522, 13.6 µM (inactive); in the test on ACHN, 14.2 µM (inactive); in the test with M14, 5.22 µM (inactive); in the test on HCT-15 it was 14.3 µM; with PC-3, 14.2 µM (inactive).
In the case of `CC(C)(O)C1CC(=O)C(C)(C2C(O)CC3(C)C4CC=C5C(CCC(O)C5(C)C)C4(C)C(=O)CC23C)O1` (stereo not given), the GI50 in the test with CAKI-1 is > 100 µM (inactive); with HCC 2998, > 100 µM (inactive); in the test on K562, > 100 µM (inactive); with SW-620, > 100 µM (inactive); with Hs-578T, > 100 µM (inactive); with SNB-75 it was 42.2 µM (inactive). Moreover, the GI50 in the test on OVCAR-8, in the test with MDA-MB-231, with A498, with UACC-62, in the test with BT-549 and in the test with SNB-19 was > 100 µM (inactive) in each case. Also, the GI50 was > 100 µM (inactive) in the test with SF-295; > 100 µM (inactive) with NCI-H522; > 100 µM (inactive) with ACHN; > 100 µM (inactive) in the test with M14; above 100 µM with HCT-15; > 100 µM (inactive) in the test with PC-3.
